Measured values as given in patent US20250205204A1, “Transcription Factor Brn2 Inhibitory Compounds for Use as Therapeutics” (The University of British Columbia, priority 2021, published 2025).
Like-named read-outs stand apart in the source and are kept apart here.

Legend:
42D^ENZR cells = test: Cell proliferation, BRN2 expressing 42D cells (crystal violet); format: cell-based; conditions: for Growth Specificity: 42D (express BRN2) versus 16D (no BRN2) cells, result in words
Experimental: Step 3: Cell Proliferation
Plate 42DE^NZR (˜7000 cells per well) and 16D^CRPC (˜5000 cells per well) cells in 96 well plate with a volume of 100 μL per well. • 2. Next day 1 mL aliquots of media are combined with 3× the desired concentration of compounds. The aliquots are vortexed and 50 μL of each 3× concentration is added to the 100 μL of media in each well to give the ix desired concentration.
The following are the desired concentrations:
Approximately 72 hours later, 17 μL of 10% Glutaraldehyde is added to each well and plates are placed on a shaker for 20-30 minutes. • 4. Media is washed off the fixed cells by slow submersion in a container of water. Then the water is removed by tapping the plate upside down. • 5. 75 μL of Crystal Violet™ solution is added into the 96 well plates and placed on a shaker for ˜30 minutes. • 6. Media is washed off the fixed cells by repeated slow submersion in a container of water and the plates are allowed to dry over-night. • 7. Next day, 75 μL of Sorensen Solution is accurately pipetted into each well. The plates placed on a shaker for ˜30 minutes. • 8. Absorbance is measured in the plate at 590 nm.
There is a distinction in TABLES 1 and 2 difference between “Active” and “Specific” or “Specificity”.

[1] = Metabolic stability in liver microsomes (MLM); format: in vitro ADME, mice; conditions: 0.25 mg/mL protein; for half-life at 1 μM: mouse, liver microsomes, pH 7.4, 1 μM compound, read-out: T1/2 in mins (MLM); for Met Stab % (60 mins) MLM: percent remaining at 60 min, 1 μM compound, 1 mM NADPH
Experimental: Preparation of Potassium Phosphate Buffer, 50 mM (pH 7.4)
Potassium phosphate buffer (Kphos) was prepared by adding 0.647 g potassium phosphate monobasic (KH2PO4) and 3.527 g potassium phosphate dibasic (KH2PO4) to 400 mL of Milli-Q™ water. pH of the buffer was adjusted to 7.4 and volume was made up to 500 mL.
Preparation of Microsomes
Stock solutions of BRN2 inhibitors were prepared in DMSO at a concentration of 1 mM
Preparation of NADPH Solution
• Total Incubation volume: 100 μL • Compound concentration: 1 μM • Protein Concentration: 0.25 mg/mL • NADPH: 1 mM • Final DMSO contain: 0.1% • Number of replicates: 2 • Time points: 0, 5, 15, 30 and 60 min
From the above mix, 70 μL was added to individual wells of 96 well reaction plates and pre-incubated in a 37° C. water bath for 5 min. […] Reactions without NADPH and buffer controls (minus NADPH) at 0 min and 60 min were also incubated to rule out non-NADPH metabolism or chemical instability in the incubation buffer. All reactions were terminated using 100 μL of ice-cold acetonitrile containing internal standard at 0, 5, 15, 30 and 60 min.
Samples were monitored for parent compounds disappearance in MRM mode using LC-MS/MS.
The percent remaining of test compounds and positive control in each sample was determined by considering peak area ratio in the 0 minute sample as 100%. The Half-life of compounds in microsomes is calculated by formula: […]
In vitro intrinsic clearance (CL'int) (units in mL/min/kg) was calculated using the formula.
[formula] • For liver microsomes, scaling factor used was 45 mg microsomal protein per gm liver. • * Indicates liver weight (gm) which varies species wise. For mice the liver weights are 90 gm.

[2] = read-out: IC50 (effective on both 42D and 16D cells)

Structure (SMILES)	half-life at 1 μM [1] [min]	Met Stab % (60 mins) MLM [1] [%]	Growth Specificity (42D^ENZR cells; about 72 hours)	IC50 (42D^ENZR cells; [2]) [µM]	IC50 (42D^ENZR cells; 42D cells, proliferation, about 72 hours, read-out: 42D IC50) [µM]
CN(/N=C1\CCc2ccccc21)c1nc2ccccc2s1 [7-30]	11	1	Non-specific. Effective on both 42D and 16D cells		
N#Cc1ccc2nc(N/N=C3\CCc4ccccc43)sc2c1 [7-33]	47	35	Non-specific. Effective on both 42D and 16D cells		
FC1(F)Cc2ccccc2/C1=N/Nc1nc2ccccc2s1 [7-35]	12	1	Not effective on 42D or 16D cells		
Clc1ccc2c(c1)/C(=N\Nc1nc3ccccc3s1)CC2 [7-38]	8	1	Not effective on 42D or 16D cells		
Fc1cc(F)c2nc(N/N=C3\CCc4ccccc43)sc2c1 [7-39]	17	7	Not effective on 42D or 16D cells		
O=C1/C(=N\Nc2nc3ccccc3s2)CC2C=CC=CC12 (stereo not shown) [7-41]	33	28	Not effective on 42D or 16D cells		
c1ccc2c(c1)CCC2c1cnn(-c2nc3ccccc3s2)c1 (stereo not shown) [7-43]	10	1	Not effective on 42D or 16D cells		
c1ccc2c(c1)CCC2c1ccc(-c2nc3ccccc3s2)o1 (stereo not shown) [7-44]	10	1	Not effective on 42D or 16D cells		
Fc1cc(Br)c2c(c1)/C(=N\Nc1ccc3ccccc3n1)CC2 [7-45]	21	14	Not effective on 42D or 16D cells		
Cc1ccc2nc(N/N=C3/CCc4ccccc43)sc2c1 [7-46]	13	5	Not effective on 42D or 16D cells		
Fc1ccc2nc(N/N=C3/CCc4ccccc43)sc2c1 [7-47]	7	0	Not effective on 42D or 16D cells		
c1ccc2c(c1)CC/C2=N/Nc1ccc2ccccc2c1 [7-48]	22	14	Not effective on 42D or 16D cells		
c1ccc2c(c1)CN(Nc1nc3ccccc3s1)C2 [7-49]	14	1	Not effective on 42D or 16D cells		
O=C(Nc1nc2ccccc2s1)C1CCc2ccccc21 (stereo not shown) [7-51]	12	1	Not effective on 42D or 16D cells		
C/C(=N\Nc1nc2ccccc2s1)c1ccccc1C [7-54]		0	Not effective on 42D or 16D cells		
Fc1ccc2c(c1)/C(=N\Nc1nc3ccccc3s1)CC2 [7-56]	8	0	effective on both 42D and 16D cells	10	
Fc1cccc2c1/C(=N\Nc1nc3ccccc3s1)CC2 [7-58]	7	0	effective on both 42D and 16D cells	10	
c1ccc(N/N=C2\CCc3ccccc32)nc1 [7-60]	8	0	Not effective on 42D or 16D cells		
Cc1nc(N/N=C2/CCc3ccccc32)sc1C [7-63]	11	1	Not effective on 42D or 16D cells		
c1ccc2c(c1)CC/C2=N/Nc1nccs1 [7-64]	8	0	Not effective on 42D or 16D cells		
COC(=O)C1/C(=N/Nc2nc3ccccc3s2)Cc2ccccc21 (stereo not shown) [7-68, methyl (E)-2-(2-(benzo[d]thiazol-2-yl)hydrazineylidene)-2,3-dihydro-1H-indene-1-carboxylate]	< 5	0	not specific		
O=c1c(=NNc2nc3ccccc3s2)c(=O)c2ccccc12 [7-85]	32	25	Not specific		
O=C(NNc1nc2ccccc2s1)C1Cc2ccccc2C1=O (stereo not shown) [7-86]	19	18	Not specific		

More lines, main results first:

half-life at 1 μM [1] [min]	Met Stab % (60 mins) MLM [1] [%]	Structure (SMILES)	Growth Specificity (42D^ENZR cells; about 72 hours)	IC50 (42D^ENZR cells; [2]) [µM]	IC50 (42D^ENZR cells; 42D cells, proliferation, about 72 hours, read-out: 42D IC50) [µM]
6	0	Clc1cccc2nc(N/N=C3\CCc4ccccc43)sc12 [7-34]	Non-specific. Effective on both 42D or 16D cells		
16	7	c1ccc2c(c1)Cc1nn(-c3nc4ccccc4s3)cc1-2 [7-37]	Not effective on 42D or 16D cells		
13	4	CC1(C)C/C(=N/Nc2nc3ccccc3s2)c2ccccc21 [7-53]	effective on both 42D and 16D cells	10	
10	1	CC1(C)Cc2ccccc2/C1=N\Nc1nc2ccccc2s1 [7-61]	effective on both 42D and 16D cells	10	
34	28	CC1(C)/C(=N/Nc2nc3ccccc3s2)C(=O)c2ccccc21 [7-67, (Z)-2-(2-(benzo[d]thiazol-2-yl)hydrazineylidene)-3,3-dimethyl-2,3-dihydro-1H-inden-1-one]	not specific		
44	33	O=C1c2ccccc2CC1/C=N/Nc1nc2ccccc2s1 (stereo not shown) [7-69, (E)-2-((2-(benzo[d]thiazol-2-yl)hydrazineylidene)methyl)-2,3-dihydro-1H-inden-1-one]	not specific		
10	1	O=C1/C(=N\Nc2nc3ccccc3[nH]2)Cc2ccccc21 [7-76, (Z)-2-(2-(1H-benzo[d]imidazol-2-yl)hydrazineylidene)-2,3-dihydro-1H-inden-1-one]	Not effective on 42D or 16D cells		
16	8	O=C1/C(=N\Nc2nc3ccccc3o2)Cc2ccccc21 [7-77, (Z)-2-(2-(benzo[d]oxazol-2-yl)hydrazineylidene)-2,3-dihydro-1H-inden-1-one]	Not specific		
32	32	O=C1/C(=N\Nc2nc(-c3ccccc3)cs2)Cc2ccccc21 [7-78]	Not effective on 42D or 16D cells		
6	2	Cn1c(N/N=C2/Cc3ccccc3C2=O)nc2ccccc21 [7-79]	Specific but weak		> 15
10	4	O=C1/C(=N\Nc2ccc3ccccc3n2)Cc2ccccc21 [7-80, (Z)-2-(2-(quinolin-2-yl) hydrazineylidene)-2,3-dihydro-1H-inden-1-one]	Specific to 42D		
17	16	O=C1/C(=N\Nc2cc3ccccc3s2)Cc2ccccc21 [7-83, (Z)-2-(2-(benzo[b]thiophen-2-yl)hydrazineylidene)-2,3-dihydro-1H-inden-1-one]	Not effective on 42D or 16D cells		
> 60	98	O=C(O)c1csc(N/N=C2/Cc3ccccc3C2=O)n1 [7-87]	Not specific		
> 60	94	O=C(O)c1cnc(N/N=C2/Cc3ccccc3C2=O)s1 [7-88]	Not specific		
11	2	O=C1/C(=N\Nc2nc3ccccc3s2)CCc2ccccc21 [7-89]	Not specific		
